Assay results taken from patent publication US20240130988A1, “Use of stilbene compounds in the preparation of anti-tumor drugs” (Guangzhou AnHao Pharmaceutical Technology CO., LTD., priority 2022, published 2024).
Like-named read-outs stand apart in the source and are kept apart here.

Key:
[1] = system: human liver cancer QGY7703; test: Human liver cancer QGY7703 transplanted tumor in nude mice; format: in vivo, BALB/C nude mice; set-up: key to RTV (d 18): RTV = Vt/Vo, tumor volume relative to volume at grouping (d1); settings: for inhibition in vivo at 100 mg/kg: Mus musculus, read-out: Tumor inhibitory rate %
Protocol: A human liver cancer QGY7703 model transplanted into nude mice was used in the experiment to investigate the anti-tumor effect of test compounds. The mice were intravenously injected at a dosage of 100 mg/kg for 14 days, and the tumor inhibition rate against human liver cancer QGY7703 was measured.
Preparation: The compound was prepared as the injection at the desired concentration with sterile normal saline, prior to administration.
Animal strain: BALB/C nude mice (SPF grade), weight: 19-21 g, gender: male. Number of animals in each treatment group: 8; number of animals in the control group: >12.
The tumor blocks of human liver cancer QGY7703 with good growth were cut into uniform small pieces of 3 mm under sterile conditions, and then subcutaneously inoculated into the right armpit of each mouse with a cannula. These mice were divided into 9 groups, 8 mice for each treatment group, while more than 12 mice were included in the control group.
14 days after inoculation, the average volume of the tumor block was about 100 mm^3. The animals were regrouped based on the size of the tumor, and the animals with tumors that were too large and too small were sifted out. For each group, the average volume of tumors was basically the same, and then the mice were initially treated with test compounds. The mice in the treatment groups were intravenously injected once a day for 14 days, at a dosage of 0.1 mL/20 g body weight; the mice in the control group were given the same volume of sterile normal saline. From the 14th day of inoculation, the long diameter a (mm) of the tumor, together with the perpendicular short diameter b (mm), was measured using a digital electronic caliper, twice a week. The calculation formula of tumor volume is: TV=ab^2/2, and the formula for calculating the relative tumor volume is RTV=Vt/Vo, wherein Vo denotes the tumor volume measured when the mice were divided into groups (i.e. d1), and Vt is the tumor volume from each measurement.
The result determination is based on the following formula: […]

[2] = system: B16 mouse melanoma; test: Lung metastasis model of B16 mouse melanoma; format: in vivo, C57BL/6 mice
Protocol: Under sterile conditions, […] mouse melanoma cells in logarithmic growth period were cultured, and then prepared as 2.8×10^5/mL of cell suspension, which was inoculated into the tail vein of C57BL/6 mice at 0.2 mL/mouse. Compound 6 was administered to the mice on the next day. Three weeks later, each animal was sacrificed, and the lungs of mice in each group were dissected. The number of metastatic colonies in the lungs of mice was detected and counted, and the average number of tumor colonies in each group was used to calculate the tumor inhibitory rate according to the formula: Tumor inhibitory rate %=[(The average number of colonies in the control group−the average number of colonies in the treatment group)/The average number of colonies in the control group]×100%, The results are shown in Table 16.

[3] = system: ocular surface neovascularization; test: Neovascularization of ocular surface in rats (NaOH cornea model); format: in vivo, SD rats; settings: 50 μL/eye, 3 times/day, 10 days
Protocol: Four SD rats, regardless of gender, were subjected to single eye modeling, with a total of four eye models. One eye was used as a blank control (untreated group), one eye was used as a model control, one eye was used as treatment group 1, and one eye was used as treatment group 2.
The rats were anesthetized with pentobarbital sodium (25-30 mg/(kg, intraperitoneal injection), and two drops of oxybuprocaine hydrochloride eye drops were administrated to both eyes for ocular surface anesthesia. 30 μL of NaOH solution (1 mol/L) was placed with a pipette on a dry filter paper with a diameter of approximate 3 mm for 10 seconds. The moistened circular filter paper was gently applied to the center of the cornea (covering the corneoscleral margin) of the model eye, and a tight fit was kept for suitable time. The filter paper was removed, and then physiological saline was used to wash the eye, which was rinsed with a needle for 1 minute. After operation, ofloxacin eye ointment was applied to prevent infection (3 times/day, for 5 days).
On the 5th day (D5), neovascularization began to appear, and D5 was the first day of administrating the test compound (d1). Three eye drops were administered daily for 10 consecutive days (d10). […] After completion of the experiment, the rats were euthanized.
Blank control group (untreated group): no any treatment, no modeling, no administration. […]

[4] = system: Lewis non-small cell lung cancer; test: Compound 11 combined with PD-L1, Lewis non-small cell lung cancer model in mice; format: in vivo, C57BL/6 mice; settings: ip: PD-L1 10 mg/kg, compound 11 200 mg/kg, combination 10 + 200
Description: Experimental method: The model of transplant tumor in C57BL/6 mice was established by subcutaneously inoculating Lewis non-small cell lung cancer cell lines into the armpits of C57BL/6 mice. Cells were inoculated in an amount of 1×10^6, and after formation of the transplanted tumors by inoculation, the cells were passed 3 generations in C57BL/6 mice before use. The vigorous growth of tumor tissue was cut into approximate 1.5 mm^3, and homogenized under sterile conditions, to prepare 1×10^7/mL of cell suspension. 0.1 mL of cell suspension was subcutaneously inoculated into the right armpit of C57BL/6 mice. For transplanted tumors in C57BL/6 mice, the diameter was measured with vernier caliper. After the tumor grew to 100 mm^3, the animals were randomly divided into groups, with 6 mice in each group. […] The measurement frequency of tumor diameter was once every three days. The dosage by volume was 0.1 mL/20 g. The mice in the negative control group were given an equal amount of physiological saline by intravenous injection.
The effect of combined medicaments was evaluated based on the Q value calculated by Jin's formula: […]
Ea+b represents the tumor inhibitory rate of the combined medicaments, while Ea and Eb represent the tumor inhibitory rates of medicament A and medicament B, respectively.

[5] = QGY-7703, QGY7703, 100 mg/kg iv × 14

For COc1cc(/C=C(/C(=O)O)c2cc(OC)c(OC)c(OC)c2)cc(OC)c1 [Compound 3, (E)-3-(3,5-dimethoxyphenyl)-2-(3,4,5-trimethoxyphenyl)acrylic acid], the inhibition in vivo at 100 mg/kg ([1]; QGY-7703, iv) was 63.7% and the “RTV (d 18)” value ([1]; QGY7703, 100 mg/kg iv × 14) was 4.67 ± 0.63.

In the case of COc1ccc(/C=C(/C(=O)O)c2cc(OC)c(OC)c(OC)c2)cc1F [Compound 4, (E)-3-(3-fluoro-4-methoxyphenyl)-2-(3,4,5-trimethoxyphenyl)acrylic acid], the inhibition in vivo at 100 mg/kg ([1]; QGY-7703, iv) is reported as 60.3% and the “RTV (d 18)” value ([1]; QGY7703, 100 mg/kg iv × 14) is reported as 5.11 ± 0.76.

For COc1ccc(/C=C(/C(=O)O)c2cc(OC)c(OC)c(OC)c2)cc1O [Compound 6, (E)-3-(3-hydroxy-4-methoxyphenyl)-2-(3,4,5-trimethoxyphenyl)acrylic acid], the inhibition in vivo at 100 mg/kg [1, 5] was 71.6%, the “RTV (d 18)” value ([1]; QGY7703, 100 mg/kg iv × 14) was 3.65 ± 0.47 and the “Tumor inhibitory rate %” value ([1]; QGY7703, 100 mg/kg iv × 14) was “best inhibitory effect on liver cancer”. The “Animal weight (g) End” value ([2]; 40 mg/kg iv × 10qod) was 20.2/25.4 g, the “Metastasis inhibitory rate %” value ([2]; 40 mg/kg iv × 10qod) was 24.11% and the “Number of lung tumor colonies χ ± SD” value ([2]; 40 mg/kg iv × 10qod) was 40.1 ± 9.0. For the same molecule, the “Animal weight (g) End” value ([2]; 60 mg/kg iv × 10qod) was 20.1/25.7 g, the “Metastasis inhibitory rate %” value ([2]; 60 mg/kg iv × 10qod) was 29.03% and the “Number of lung tumor colonies χ ± SD” value ([2]; 60 mg/kg iv × 10qod) was 37.5 ± 11.7. For the same molecule, the “Animal weight (g) End” value ([2]; 80 mg/kg iv × 10qod) was 19.9/25.7 g, the “Metastasis inhibitory rate %” value ([2]; 80 mg/kg iv × 10qod) was 35.84% and the “Number of lung tumor colonies χ ± SD” value ([2]; 80 mg/kg iv × 10qod) was 33.9 ± 10.8. For the same molecule, the “Animal weight (g) End” value ([2]; 120 mg/kg iv × 10qod) was 20.2/25.6 g, the “Metastasis inhibitory rate %” value ([2]; 120 mg/kg iv × 10qod) was 34.14% and the “Number of lung tumor colonies χ ± SD” value ([2]; 120 mg/kg iv × 10qod) was 34.8 ± 13.4. The “Inhibition of metastasis of B16 mouse melanoma, in words” value ([2]; 40-120 mg/kg iv × 10qod) was “inhibit the metastasis of B16 mouse melanoma in a dose-dependent manner”, the Vascularization area ([3]; high-dose group, eye drops 25 mg/mL) was “significantly decreased” and the “Neovascularization of the ocular surface” value ([3]; treatment groups, eye drops 10 or 25 mg/mL, vs model group) was “reduced compared to the model group”.

With COc1ccc(/C=C(/C(=O)O)c2cc(OC)c(OC)c(OC)c2)c(F)c1O [Compound 9, (E)-3-(2-fluoro-3-hydroxy-4-methoxyphenyl)-2-(3,4,5-trimethoxyphenyl)acrylic acid] the inhibition in vivo at 100 mg/kg [1, 5] was 63.7% and the “RTV (d 18)” value ([1]; QGY7703, 100 mg/kg iv × 14) was 4.67 ± 0.58.

COc1cc(/C=C(/C(=O)[O-])c2cc(OC)c(OC)c(OC)c2)cc(OC)c1F.[K+] [Compound 10] was tested, and the inhibition in vivo at 100 mg/kg ([1]; QGY-7703, iv) was 61.3% and the “RTV (d 18)” value ([1]; QGY7703, 100 mg/kg iv × 14) was 4.98 ± 0.72.

COc1cc(/C(=C\c2cc(O)c(OC)c(O)c2)C(=O)O)cc(OC)c1OC [Compound 11, (E)-3-(3,5-dihydroxy-4-methoxyphenyl)-2-(3,4,5-trimethoxyphenyl)acrylic acid] was tested, and the “RTV (d 18)” value [4] was 7.62 ± 2.28, the “Terminal weight” value [4] was 23.1 ± 0.9 g and the “Tumor inhibitory rate %” value [4] was 48.76%.
